Test results as given in PubChem BioAssay (NCI).
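Exposure lasted 48 hours, with cells grown in 96-well plates and compounds tested at five concentrations. GI50 is the concentration that inhibits growth by half. TGI: total growth inhibition.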

Legend:
Assay in all cases: NCI-60 cell line screen, 48 h
BT-549 breast = system: BT-549 breast
HCT-15 colon = system: HCT-15 colon
HL-60(TB) leukemia = system: HL-60(TB) leukemia
KM12 colon = system: KM12 colon
MOLT-4 leukemia = system: MOLT-4 leukemia
NCI-H226 lung = system: NCI-H226 lung
OVCAR-4 ovarian = system: OVCAR-4 ovarian
SK-MEL-28 melanoma = system: SK-MEL-28 melanoma
M14 melanoma = system: M14 melanoma
OVCAR-8 ovarian = system: OVCAR-8 ovarian

## NC(N)=N/N=C\c1ccc(OCc2ccccc2)cc1
BT-549 breast
  GI50: 10.8 µM
  TGI: 23 µM
HCT-15 colon
  GI50: 1.97 µM
  TGI: 5.37 µM
HL-60(TB) leukemia
  GI50: 2.56 µM
  TGI: 4.87 µM
KM12 colon
  GI50: 1.63 µM
  TGI: 3.1 µM
MOLT-4 leukemia
  GI50: 3.36 µM
  TGI: 9.36 µM
NCI-H226 lung
  GI50: 4.87 µM
  TGI: 24.2 µM
OVCAR-4 ovarian
  GI50: 2.63 µM
  TGI: 13.8 µM
SK-MEL-28 melanoma
  GI50: 1.76 µM
  TGI: 3.68 µM

## CN(C)C(=S)/N=c1\ss/c(=N\C(=S)N(C)C)n1-c1cccc(Cl)c1
HCT-15 colon
  TGI: > 100 µM
HL-60(TB) leukemia
  TGI: > 100 µM
KM12 colon
  TGI: > 100 µM
M14 melanoma
  TGI: > 100 µM
MOLT-4 leukemia
  TGI: > 100 µM
NCI-H226 lung
  TGI: > 100 µM
OVCAR-4 ovarian
  TGI: > 100 µM
OVCAR-8 ovarian
  TGI: > 100 µM
SK-MEL-28 melanoma
  TGI: > 100 µM

## CC(C)Cc1cnc(CC(C)C)c(=O)[nH]1
BT-549 breast
  TGI: > 100 µM
HCT-15 colon
  TGI: > 100 µM
KM12 colon
  TGI: > 100 µM
M14 melanoma
  TGI: > 100 µM
MOLT-4 leukemia
  TGI: > 100 µM
OVCAR-4 ovarian
  TGI: > 100 µM
OVCAR-8 ovarian
  TGI: > 100 µM
SK-MEL-28 melanoma
  TGI: > 100 µM

## COc1ccc(-c2nc3ccccc3s2)cc1OC
BT-549 breast
  TGI: 57.6 µM
HCT-15 colon
  TGI: > 100 µM
HL-60(TB) leukemia
  TGI: > 100 µM
KM12 colon
  TGI: > 100 µM
M14 melanoma
  TGI: > 100 µM
MOLT-4 leukemia
  TGI: > 100 µM
OVCAR-4 ovarian
  TGI: > 100 µM
OVCAR-8 ovarian
  TGI: > 100 µM
SK-MEL-28 melanoma
  TGI: > 100 µM

## O=C(CC1=Nc2nnc(CCCCCCCc3nnc4n3C(=O)C(CC(=O)c3ccc5ccccc5c3)=N4)n2C1=O)c1ccc2ccccc2c1
HCT-15 colon
  TGI: > 100 µM
HL-60(TB) leukemia
  TGI: > 100 µM
KM12 colon
  TGI: > 100 µM
M14 melanoma
  TGI: > 100 µM
MOLT-4 leukemia
  TGI: > 100 µM
NCI-H226 lung
  TGI: > 100 µM
OVCAR-4 ovarian
  TGI: > 100 µM
OVCAR-8 ovarian
  TGI: > 100 µM
SK-MEL-28 melanoma
  TGI: > 100 µM

## COC(=O)C1CC(c2ccc(OC)c(OC)c2)OC1=O (mixture of isomers)
HCT-15 colon
  TGI: > 100 µM
HL-60(TB) leukemia
  TGI: > 100 µM
KM12 colon
  TGI: > 100 µM
M14 melanoma
  TGI: > 100 µM
MOLT-4 leukemia
  TGI: > 100 µM
NCI-H226 lung
  TGI: > 100 µM
OVCAR-4 ovarian
  TGI: > 100 µM
OVCAR-8 ovarian
  TGI: > 100 µM
SK-MEL-28 melanoma
  TGI: > 100 µM

## Cc1cccc(N2C(=O)/C(=C/C(Cl)=C/c3ccc([N+](=O)[O-])cc3)SC2=S)c1C
BT-549 breast
  GI50: 1.61 µM
  TGI: 4.08 µM
HCT-15 colon
  GI50: 0.874 µM
  TGI: 4.77 µM
HL-60(TB) leukemia
  GI50: 1.91 µM
  TGI: 6.94 µM
M14 melanoma
  GI50: 2.39 µM
  TGI: 6.86 µM
MOLT-4 leukemia
  GI50: 1.02 µM
  TGI: > 100 µM
OVCAR-4 ovarian
  GI50: 1.46 µM
  TGI: > 100 µM
OVCAR-8 ovarian
  GI50: 1.08 µM
  TGI: > 100 µM
SK-MEL-28 melanoma
  GI50: 2.37 µM
  TGI: 7 µM

## COc1ccc(-n2cc(-c3ccc(OC)c(OC)c3)[nH]c2=O)cc1
HCT-15 colon
  GI50: > 100 µM
  TGI: > 100 µM
HL-60(TB) leukemia
  GI50: > 100 µM
  TGI: > 100 µM
KM12 colon
  GI50: > 100 µM
  TGI: > 100 µM
M14 melanoma
  GI50: > 100 µM
  TGI: > 100 µM
MOLT-4 leukemia
  GI50: > 100 µM
  TGI: > 100 µM
NCI-H226 lung
  GI50: > 100 µM
  TGI: > 100 µM
OVCAR-4 ovarian
  GI50: > 100 µM
  TGI: > 100 µM
SK-MEL-28 melanoma
  GI50: > 100 µM
  TGI: > 100 µM

## O=S(=O)(NC1=NCCN1C(=S)SN1CCn2c1nsc2=S)c1ccc(Cl)cc1
BT-549 breast
  GI50: 2.28 µM
  TGI: 6.48 µM
HCT-15 colon
  GI50: 11.9 µM
  TGI: 28.2 µM
KM12 colon
  GI50: 15.9 µM
  TGI: 33.6 µM
M14 melanoma
  GI50: 12.9 µM
  TGI: 32.5 µM
MOLT-4 leukemia
  GI50: 3.56 µM
  TGI: 21.7 µM
NCI-H226 lung
  GI50: 5.77 µM
  TGI: 20.7 µM
OVCAR-4 ovarian
  GI50: 9.6 µM
  TGI: 44.2 µM
OVCAR-8 ovarian
  GI50: 7.13 µM
  TGI: > 100 µM
SK-MEL-28 melanoma
  GI50: 4.85 µM
  TGI: 20.7 µM
